Assays:
HMGB2 [1] = target: T1, HMGB2 (Homo sapiens, UniProt P26583); assay: Western blot of HMGB2 protein in LX-2 and Huh7 cells treated with ICM; format: cell-based; design: endogenous in cells; host or cells: LX-2, Huh7; settings: for HMGB2 protein: fresh media every day for 3 days (FIG. 18 left)
T1 sequence (P26583 1-209): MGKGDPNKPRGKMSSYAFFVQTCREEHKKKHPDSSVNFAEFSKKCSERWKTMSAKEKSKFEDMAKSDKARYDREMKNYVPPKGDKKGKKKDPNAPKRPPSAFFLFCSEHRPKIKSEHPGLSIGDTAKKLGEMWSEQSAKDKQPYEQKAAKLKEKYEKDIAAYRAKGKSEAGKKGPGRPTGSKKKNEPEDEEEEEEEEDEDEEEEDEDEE
Method: Western Blotting: Total protein lysates were prepared from livers and cells in lysis buffer containing 50 mM Tris, pH 8.0, 1% Nonidet™ P-40, 150 mM NaCl, 0.5% sodium deoxycholate, 0.1% SDS with protease inhibitors (Thermo Fisher Scientific) and subjected to immunoblotting. Nuclear and cytoplasmic subcellular fractions were prepared using NE-PER nuclear and cytoplasmic extraction reagents (Pierce) according to the manufacturer's instructions. The blot was incubated with a primary antibody, followed by a secondary antibody conjugated to horseradish peroxidase. ECL kit (Pierce) was used to detect the reactivity. The following antibodies were obtained from Cell Signaling Technology: HMGB2, HMGB1, AKT, p-AKT, mTOR, p-mTOR, ERK1/2, pERK1/2, Raptor, Rictor, p53, p21, p-Bad, Smad4, p-Smad2/3, Lamin A/C, a-SMA, MMP2, MMP9, TIMP1, RhoA, Rho-GTP, Cdc42, Rac1/2/3. Anti-HA antibody and anti-beta actin antibody were purchased from Sigma and Santa Cruz Biotechnology, respectively.
Cell Lines The LX-2 human stellate cell line was maintained in Dulbecco's Modified Eagle's Medium (DMEM) supplemented with 2% fetal bovine serum (FBS), 100 IU/ml penicillin, and 100 μg/ml streptomycin. Human hepatocellular carcinoma (HCC) MHCC97H cells were maintained in DMEM supplemented with 10% FBS, 100 IU/ml penicillin, and 100 μg/ml streptomycin, 1 mM HEPES, 1 mM sodium pyruvate, 2 mM L-glutamine. Tumor-initiating (TIC) cells were obtained from Dr. Hidekazu Tsukamoto at University of Southern California and were maintained in 1:1 DMEM:F12 supplement with 100 U/ml penicillin and 100 μg/ml streptomycin, 2 mM glutamine, 20 ng/ml mouse EGF, 10 nM dexamethasone, 1× embryomax nucleotides. All the cells were maintained at 37° C. humidified atmosphere with 5% CO2. TIC cells were infected with Hmgb2 shRNA lentivirus for 48 hr, and treated with 500 ng/ml puromycin for 2 weeks. The stable cells were used for migration and invasion assay, as well as western blot.

HMGB2 [2] = target: T1, HMGB2; assay: Co-immunoprecipitation of acetylated / phosphorylated HMGB2 in LX-2 cells; format: cell-based; design: Total protein lysates were prepared from livers and cells in lysis buffer; endogenous in cells; host or cells: LX-2; settings: CCl4 and ICM for 24 hours (FIG. 5D)
Method: Co-immunoprecipitation experiments: LX-2 cells were transfected with a vector expressing HA-CBP with X-treineGENE™ transfection reagent (Sigma). 24 hours later, cells were treated with CCl4 and ICM for 24 hours. Cells then washed 2 times with cold phosphate buffered saline (PBS), lysed in buffer (50 mM Tris HCl, pH 7.4, 150 mM NaCl, 1 mM EDTA, and 1% TRITON X-1.00, and protease inhibitor). Protein extracts were incubated with anti-phosphoserin antibody or anti-acetylated lysin antibody (Cell signaling technology) overnight at 4° C. Protein A/G beads were added to the supernatants and incubated for 4 hours at 4° C. The beads were washed five times in NP-40 lysis buffer. Immune complexes were eluted by SDS—sample buffer, resolved on 10% SDS-PAGE and proceeded for immunoblotting with the indicated antibody.

HMGB1 protein = target: T2, HMGB1 protein (Mus musculus, UniProt P63158); assay: Western blot of HMGB1 protein in liver of CCl4-treated mice; format: in vivo; settings: CCl4+ICM (FIG. 16)
T2 construct: Total protein lysates were prepared from livers and cells in lysis buffer; from tissue; host or cells: mouse liver
T2 sequence (P63158 1-215): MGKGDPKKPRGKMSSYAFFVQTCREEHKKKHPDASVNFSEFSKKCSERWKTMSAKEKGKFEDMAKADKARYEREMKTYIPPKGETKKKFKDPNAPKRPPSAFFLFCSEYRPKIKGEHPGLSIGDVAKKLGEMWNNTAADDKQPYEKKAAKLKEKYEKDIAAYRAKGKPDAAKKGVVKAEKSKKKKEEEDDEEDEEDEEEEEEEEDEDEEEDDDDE
Method: Animal Care: All animal care and experimental procedures were approved by the Institutional Animal Care and Use Committee at the University of Connecticut. Shp^−/− mice were described previously. Hmgb2^−/− mice were obtained from Dr. Stella Tsirka at Stony Brook University. C57BL/6J mice were purchased from Jackson Laboratory. All mice were maintained on a 12-h light/dark cycle with free access to food and water unless otherwise indicated. For CCl4 treatment, CCl4 (Sigma) was dissolved in corn oil and administered to mice at a dose of 850 μl/kg BW by intraperitoneal injection (IP) twice a week for 6 or 10 weeks with or without ICM. Age-matched control mice were treated with a corn oil vehicle. For CCl4+ICM treatment, mice were treated with CCl4 for 2 weeks and then ICM (Department of Pharmaceutical Sciences at UConn) was dissolved in PEG (Sigma) and treated with mice (10 mg/kg) every day for 4 or 8 weeks in combination with CCl4. To induce overexpression of HMGB2 in liver, AAV8-Hmgb2 or a control AAV8-GFP was given to mice by tail vein injection at a dose of 5×10^10 GC. To knockdown HMGB2 in mouse livers, AAV-shHmgb2 or a control AAV-shGFP was delivered to mice at a dose of 2×10^10 GC by tail vein injection. One week later, mice injected with AAVs were treated with CCl4 or CCl4 +ICM as described above and sacrificed. […]

TIC cells = assay: TIC cell spheroid assay; format: cell-based; settings: TIC cells with stable HMGB2 knockdown (FIG. 7F)
Method: TIC cells were trypsinized into single cells and 1000 cells were suspended in serum free TIC medium with 1% methylcellulose supplemented with B27, 20 ng/ml EGF and 20 ng/ml FGF in each well of 96-well ultralow attachment plate.

`CC1(C)Oc2cc(O)ccc2C2C1=CCn1c(=O)n(-c3ccccc3)c(=O)n12` (stereo not shown) [ICM, inflachromene] was tested, and the HMGB2 protein (HMGB2 [1]; Huh7 cells) was “dose-dependently decreased”, the “cytoplasm HMGB2 protein” value (HMGB2 [1]; LX2 cells (FIG. 5C)) was “reduces cytoplasm HMGB2 protein” and the HMGB2 protein (HMGB2 [1]; LX-2 cells) was “dose-dependently decreased”. The “HMGB2 phosphorylation by CCl4” value (HMGB2 [2]) was “decreases”, the “HMGB2 acetylation by CBP/CCl4” value (HMGB2 [2]; HA-CBP) was “decreases” and the HMGB1 protein (HMGB1 protein) was “less effect on HMGB1 protein”.

“shHMGB2: small hairpin RNA against HMGB2 (SEQ ID NO: 8), delivered by AAV or lentivirus (CCGGGCTCAACATTAGCTTCAGTATCTCGAGATACTGAAGCTAATGTTGAGCTTTTTG)” was tested, and the spheroid size (TIC cells) was “decreased spheroid size”.
